Earlier results in patent US12378302B2, “Fusion molecules and uses thereof” (Foundation Medicine, Inc., priority 2012, dated 2025).
Like-named read-outs stand apart in the source and are kept apart here.

Assays:
InsR = InsR (Homo sapiens, UniProt P06213)
H460 cells = conditions: read-out: IC50 reduction of colony number and size
[1] = test system: HER2, PDGFR, VEGFR-2, Bcr-Abl and c-Kit
EGFR = EGFR (Homo sapiens, UniProt P00533); conditions: ErbB family vs other kinases
CaMK = conditions: competitively with ATP
VEGFR2 = conditions: VEGFR2/3 vs FGFR1, PDGFRα/β
[2] = test system: FGFR-1, Flt3, c-Met EGFR and IGF-1R
[3] = test system: FGFR-1, Flt3, c-Met EGFR and IGF-1R; remark: listed apart in the source
[4] = test system: phosphorylation of FGFR-1, EGFR or c-Met
B-Raf^V600E = B-Raf^V600E (Homo sapiens, UniProt P15056, V600E); conditions: V600E vs wild-type
Sequence of B-Raf^V600E (P15056 whole entry V600E): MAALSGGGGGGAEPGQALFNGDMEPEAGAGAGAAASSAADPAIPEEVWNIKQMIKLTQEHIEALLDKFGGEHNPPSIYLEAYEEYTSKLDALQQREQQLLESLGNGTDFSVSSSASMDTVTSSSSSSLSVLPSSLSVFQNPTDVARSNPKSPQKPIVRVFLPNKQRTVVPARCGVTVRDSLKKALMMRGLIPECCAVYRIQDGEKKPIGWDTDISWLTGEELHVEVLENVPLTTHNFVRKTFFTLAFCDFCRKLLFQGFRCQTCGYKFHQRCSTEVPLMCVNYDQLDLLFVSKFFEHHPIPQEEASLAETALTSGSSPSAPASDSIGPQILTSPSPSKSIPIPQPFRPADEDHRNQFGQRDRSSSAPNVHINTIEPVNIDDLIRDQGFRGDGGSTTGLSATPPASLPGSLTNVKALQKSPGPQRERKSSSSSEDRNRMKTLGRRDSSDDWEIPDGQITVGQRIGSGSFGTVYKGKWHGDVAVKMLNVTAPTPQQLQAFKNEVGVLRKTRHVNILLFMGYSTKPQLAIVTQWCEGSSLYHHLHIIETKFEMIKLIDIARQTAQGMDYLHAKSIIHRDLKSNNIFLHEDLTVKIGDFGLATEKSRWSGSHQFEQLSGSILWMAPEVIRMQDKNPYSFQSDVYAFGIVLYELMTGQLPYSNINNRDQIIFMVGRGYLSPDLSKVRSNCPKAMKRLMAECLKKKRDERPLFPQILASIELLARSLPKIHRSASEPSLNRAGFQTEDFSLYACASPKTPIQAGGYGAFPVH

[5] = target: c-Raf-1 (Y340D and Y341D mutations) (Homo sapiens, UniProt P04049, Y340D/Y341D)
Sequence of c-Raf-1 (Y340D and Y341D mutations) (P04049 whole entry Y340D/Y341D): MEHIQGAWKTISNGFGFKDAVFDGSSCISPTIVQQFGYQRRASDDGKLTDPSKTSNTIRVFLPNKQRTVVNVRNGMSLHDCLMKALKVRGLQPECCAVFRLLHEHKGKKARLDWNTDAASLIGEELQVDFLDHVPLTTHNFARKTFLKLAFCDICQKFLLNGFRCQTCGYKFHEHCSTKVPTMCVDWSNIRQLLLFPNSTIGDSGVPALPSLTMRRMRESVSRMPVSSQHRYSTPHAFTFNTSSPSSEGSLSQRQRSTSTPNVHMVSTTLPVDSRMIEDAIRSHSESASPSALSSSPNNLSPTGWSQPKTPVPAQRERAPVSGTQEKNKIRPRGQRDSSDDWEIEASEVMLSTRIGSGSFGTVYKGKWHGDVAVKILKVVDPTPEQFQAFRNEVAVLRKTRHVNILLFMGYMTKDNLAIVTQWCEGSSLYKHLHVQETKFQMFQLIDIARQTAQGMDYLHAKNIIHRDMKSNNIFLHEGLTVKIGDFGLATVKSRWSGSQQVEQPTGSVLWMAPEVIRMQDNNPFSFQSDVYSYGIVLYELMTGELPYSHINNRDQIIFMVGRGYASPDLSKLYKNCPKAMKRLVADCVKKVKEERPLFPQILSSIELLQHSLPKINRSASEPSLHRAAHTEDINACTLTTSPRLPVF

[6] = test system: Abl, Fyn, Kit, Lck, Lyn and Yes
[7] = test system: Abl, Fyn, Kit, Lck, Lyn and Yes; remark: listed apart in the source
VEGFR3 = VEGFR3 (Homo sapiens, UniProt P35916)
Sequence of VEGFR3 (P35916 25-1363): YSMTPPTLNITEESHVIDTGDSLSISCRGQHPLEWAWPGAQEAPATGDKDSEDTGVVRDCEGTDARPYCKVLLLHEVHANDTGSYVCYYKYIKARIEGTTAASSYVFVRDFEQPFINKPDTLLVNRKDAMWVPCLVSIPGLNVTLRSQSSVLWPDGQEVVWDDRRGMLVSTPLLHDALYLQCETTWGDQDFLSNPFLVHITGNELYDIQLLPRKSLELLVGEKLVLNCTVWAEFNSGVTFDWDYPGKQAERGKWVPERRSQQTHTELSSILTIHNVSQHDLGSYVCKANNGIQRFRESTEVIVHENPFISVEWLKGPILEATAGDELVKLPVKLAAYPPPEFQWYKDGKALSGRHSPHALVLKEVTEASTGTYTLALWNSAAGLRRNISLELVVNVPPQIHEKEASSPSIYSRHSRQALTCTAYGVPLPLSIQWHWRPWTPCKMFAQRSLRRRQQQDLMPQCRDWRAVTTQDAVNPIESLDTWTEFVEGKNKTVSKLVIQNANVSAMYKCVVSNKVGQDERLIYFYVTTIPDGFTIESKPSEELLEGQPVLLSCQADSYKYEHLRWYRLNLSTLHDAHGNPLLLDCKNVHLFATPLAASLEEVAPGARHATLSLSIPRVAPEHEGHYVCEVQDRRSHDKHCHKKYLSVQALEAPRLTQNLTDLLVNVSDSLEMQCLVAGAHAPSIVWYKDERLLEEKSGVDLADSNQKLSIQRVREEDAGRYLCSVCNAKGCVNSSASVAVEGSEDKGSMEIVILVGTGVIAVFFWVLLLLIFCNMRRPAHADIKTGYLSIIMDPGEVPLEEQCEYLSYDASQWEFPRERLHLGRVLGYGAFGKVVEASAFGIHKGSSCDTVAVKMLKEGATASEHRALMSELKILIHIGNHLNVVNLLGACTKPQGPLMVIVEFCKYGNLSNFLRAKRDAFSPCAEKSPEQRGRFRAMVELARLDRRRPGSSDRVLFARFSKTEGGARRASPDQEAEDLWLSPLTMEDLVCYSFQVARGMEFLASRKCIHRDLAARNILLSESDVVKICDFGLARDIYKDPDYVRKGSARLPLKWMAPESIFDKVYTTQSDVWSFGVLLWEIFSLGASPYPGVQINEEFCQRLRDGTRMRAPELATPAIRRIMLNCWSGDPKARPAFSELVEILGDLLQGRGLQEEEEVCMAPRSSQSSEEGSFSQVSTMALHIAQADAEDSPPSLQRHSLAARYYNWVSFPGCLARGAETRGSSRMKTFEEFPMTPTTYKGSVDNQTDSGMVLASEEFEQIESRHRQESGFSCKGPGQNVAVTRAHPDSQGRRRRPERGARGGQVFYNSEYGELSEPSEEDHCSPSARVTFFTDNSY

[8] = test system: Akt1, CDKs, PLK1, EGFR, IGF-1R, c-Met, Flt2 etc.

Sequence of EGFR (P00533 25-1210): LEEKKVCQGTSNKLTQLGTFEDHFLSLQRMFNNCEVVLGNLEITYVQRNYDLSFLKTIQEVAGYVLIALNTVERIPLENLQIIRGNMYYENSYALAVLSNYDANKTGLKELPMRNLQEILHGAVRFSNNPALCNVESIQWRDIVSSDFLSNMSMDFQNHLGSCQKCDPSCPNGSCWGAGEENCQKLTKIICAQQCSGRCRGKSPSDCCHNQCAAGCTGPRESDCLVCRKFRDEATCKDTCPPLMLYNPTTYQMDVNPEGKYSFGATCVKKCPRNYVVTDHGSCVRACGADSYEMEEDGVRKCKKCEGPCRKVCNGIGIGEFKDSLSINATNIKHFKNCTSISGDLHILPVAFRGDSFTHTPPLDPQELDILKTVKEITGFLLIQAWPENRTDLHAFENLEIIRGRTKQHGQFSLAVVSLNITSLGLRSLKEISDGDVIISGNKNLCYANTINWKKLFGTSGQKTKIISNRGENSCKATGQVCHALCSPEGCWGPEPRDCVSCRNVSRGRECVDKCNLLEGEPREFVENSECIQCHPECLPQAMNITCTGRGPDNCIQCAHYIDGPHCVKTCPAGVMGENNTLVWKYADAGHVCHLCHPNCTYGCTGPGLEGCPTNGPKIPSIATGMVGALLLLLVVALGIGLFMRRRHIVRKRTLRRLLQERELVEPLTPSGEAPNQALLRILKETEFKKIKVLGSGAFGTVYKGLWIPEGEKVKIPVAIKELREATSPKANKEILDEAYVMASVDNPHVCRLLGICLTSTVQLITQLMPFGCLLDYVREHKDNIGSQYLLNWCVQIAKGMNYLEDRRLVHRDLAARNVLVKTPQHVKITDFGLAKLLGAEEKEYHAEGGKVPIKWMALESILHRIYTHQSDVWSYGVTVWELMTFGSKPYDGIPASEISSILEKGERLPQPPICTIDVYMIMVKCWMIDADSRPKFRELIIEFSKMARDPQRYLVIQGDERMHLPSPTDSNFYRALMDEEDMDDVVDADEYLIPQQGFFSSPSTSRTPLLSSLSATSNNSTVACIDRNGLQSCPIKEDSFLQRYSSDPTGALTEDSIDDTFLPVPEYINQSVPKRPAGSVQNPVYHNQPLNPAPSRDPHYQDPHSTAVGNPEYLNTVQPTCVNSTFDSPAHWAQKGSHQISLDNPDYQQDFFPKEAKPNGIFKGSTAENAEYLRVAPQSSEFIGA

Structure (SMILES): CC(C)(C)c1cc(C=C(C#N)C#N)cc(Br)c1O [AG-1024, 2-(3-bromo-5-tert-butyl-4-hydroxybenzylidene) malononitrile]
- IC50 (InsR): 57000 nM

Structure (SMILES): COc1cc2c(cc1OC)C(=Cc1ccc(O)cc1)C(=O)N2 [RPI-1, 1,3-dihydro-5,6-dimethoxy-3-[(4-hydroxyphenyl)methylene]-H-indol-2-one]
- IC50 (H460 cells): 24500 nM

Structure (SMILES): Nc1ncnc2c1c(-c1cccc(OCc3ccccc3)c1)cn2C1CC(CN2CCCC2)C1 (stereo in doubt) [NVP-ADW742, 5-(3-(benzyloxy)phenyl)-7-((1r,3r)-3-(pyrrolidin-1-ylmethyl)cyclobutyl)-7H-pyrrolo[2,3-d]pyrimidin-4-amine]
- activity to HER2, PDGFR, VEGFR-2, Bcr-Abl and c-Kit [1]: little activity

Structure (SMILES): C=CC(=O)Nc1ccc2ncnc(Nc3ccc(OCc4cccc(F)c4)c(Cl)c3)c2c1.Cc1ccc(S(=O)(=O)O)cc1 [AST-1306, 2-Propenamide, N-[4-[[3-chloro-4-[(3-fluorophenyl)methoxy]phenyl]amino]-6-quinazolinyl]-, 4-methylbenzenesulfonate (1:1)]
- selective for ErbB family than other kinases (EGFR): 3000 fold

Structure (SMILES): COc1cc2c(Oc3ccc(NC(=O)C4(C(=O)Nc5ccc(F)cc5)CC4)cc3F)ccnc2cc1OCCCN1CCOCC1 [Foretinib, N-(3-fluoro-4-(6-methoxy-7-(3-morpholinopropoxy)quinolin-4-yloxy)phenyl)-N-(4-fluorophenyl)cyclopropane-1,1-dicarboxamide]
- activity to FGFR1 and EGFR (FGFR1 and EGFR): little activity

Structure (SMILES): COC(=O)[C@@]1(O)C[C@H]2O[C@]1(C)n1c3ccccc3c3c4c(c5c6ccccc6n2c5c31)C(=O)NC4 [K252a]
- Ki (CaMK): 1.8 nM
- Ki (PKC): 25 nM
- Ki (PKG): 20 nM
- Ki (PKA): 18 nM

Structure (SMILES): O=C(O)CC[C@H]1CC[C@@](c2cc(F)ccc2F)(S(=O)(=O)c2ccc(Cl)cc2)CC1 [MK-0752, 3-((1r,4s)-4-(4-chlorophenylsulfonyl)-4-(2,5-difluorophenyl)cyclohexyl)propanoic acid]
- IC50 (Aβ40 production): 5 nM

Structure (SMILES): COc1cc2nccc(Oc3ccc(NC(=O)NC4CC4)c(Cl)c3)c2cc1C(N)=O [E7080, 1-(4-(6-carbamoyl-7-methoxyquinolin-4-yloxy)-2-chlorophenyl)-3-cyclopropylurea]
- more selective for VEGFR2/3 against FGFR1, PDGFRα/β (VEGFR2): ~10 fold

Structure (SMILES): COc1cc2nccc(Oc3ccc(NC(=O)Nc4cc(C)on4)c(Cl)c3)c2cc1OC [Tivozanib, 1-(2-chloro-4-(6,7-dimethoxyquinolin-4-yloxy)phenyl)-3-(5-methylisoxazol-3-yl)urea]
- activity against FGFR-1, Flt3, c-Met EGFR and IGF-1R [2]: low activity
- activity against FGFR-1, Flt3, c-Met EGFR and IGF-1R [3]: low activity

Structure (SMILES): CCCNC(=O)Nc1ccc(Oc2ncnc3cc(OC)c(OC)cc23)cc1Cl [KRN 633, 1-(2-chloro-4-(6,7-dimethoxyquinazolin-4-yloxy)phenyl)-3-propylurea]
- block of the phosphorylation of FGFR-1, EGFR or c-Met in cell [4]: does not block

Structure (SMILES): CCCS(=O)(=O)Nc1ccc(F)c(C(=O)c2c[nH]c3ncc(Cl)cc23)c1F [PLX4720, N-(3-(5-chloro-1H-pyrrolo[2,3-b]pyridine-3-carbonyl)-2,4-difluorophenyl) propane-1-sulfonamide]
- selectivity for B-RafV600E than wild-type B-Raf (B-Raf^V600E): 10 fold
- potency to c-Raf-1 (Y340D and Y341D mutations) relative to B-Raf V600E [5]: equally potent

Structure (SMILES): CCN1CCN(c2ccc(Nc3cc(N(C)C(=O)Nc4c(Cl)c(OC)cc(OC)c4Cl)ncn3)cc2)CC1 [BGJ398, 3-(2,6-dichloro-3,5-dimethoxyphenyl)-1-(6-(4-(4-ethylpiperazin-1-yl)phenylamino)pyrimidin-4-yl)-1-methylurea]
- activity to Abl, Fyn, Kit, Lck, Lyn and Yes [6]: little activity
- activity to Abl, Fyn, Kit, Lck, Lyn and Yes [7]: little activity

Structure (SMILES): CCn1c(N)c(C(=O)NC)c(=O)c2ccc(C#C[C@@](C)(O)COC)nc21 [SAR131675, (R)-2-amino-1-ethyl-7-(3-hydroxy-4-methoxy-3-methylbut-1-ynyl)-N-methyl-4-oxo-1,4-dihydro-1,8-naphthyridine-3-carboxamide]
- Ki (VEGFR3): 12 nM
- more selective for VEGFR3 than VEGFR1 (VEGFR3): about 50 fold
- more selective for VEGFR3 than VEGFR2 (VEGFR3): ~10 fold
- IC50 (VEGFR3; read-out: IC50 VEGFR3 (Flt4)): 23 nM
- activity against Akt1, CDKs, PLK1, EGFR, IGF-1R, c-Met, Flt2 etc. [8]: little activity
